ChEMBL document CHEMBL5030516, “Fighting Shigella by Blocking Its Disease-Causing Toxin” (J Med Chem, 2021)

Assay: Inhibition of C-terminal 6XHis-tagged Shigella dysenteriae Stx1b (21 to 89 residues) expressed in Escherichia coli BL21 for 1 hr by ELISA assay

| Structure (SMILES) | IC50 |
| --- | --- |
| O=C(O)c1cc(OCc2cn([C@@H]3O[C@H](CO)[C@H](O[C@H]4O[C@H](CO)[C@H](O)[C@H](O)[C@H]4O)[C@H](O)[C@H]3O)nn2)cc(OCc2cn([C@@H]3O[C@H](CO)[C@H](O[C@H]4O[C@H](CO)[C@H](O)[C@H](O)[C@H]4O)[C@H](O)[C@H]3O)nn2)c1 | 1070 µM |
| O=C(NCCCCCCCCCCCCNC(=O)c1cc(OCc2cn([C@@H]3O[C@H](CO)[C@H](O[C@H]4O[C@H](CO)[C@H](O)[C@H](O)[C@H]4O)[C@H](O)[C@H]3O)nn2)cc(OCc2cn([C@@H]3O[C@H](CO)[C@H](O[C@H]4O[C@H](CO)[C@H](O)[C@H](O)[C@H]4O)[C@H](O)[C@H]3O)nn2)c1)c1cc(OCc2cn([C@@H]3O[C@H](CO)[C@H](O[C@H]4O[C@H](CO)[C@H](O)[C@H](O)[C@H]4O)[C@H](O)[C@H]3O)nn2)cc(OCc2cn([C@@H]3O[C@H](CO)[C@H](O[C@H]4O[C@H](CO)[C@H](O)[C@H](O)[C@H]4O)[C@H](O)[C@H]3O)nn2)c1 | 13.5 µM |
| [N-]=[N+]=N[C@@H]1O[C@H](CO)[C@H](O[C@H]2O[C@H](CO)[C@H](O)[C@H](O)[C@H]2O)[C@H](O)[C@H]1O | 4970 µM |
| O=C(NCCOc1cc(OCCNC(=O)OCc2cn([C@@H]3O[C@H](CO)[C@H](O[C@H]4O[C@H](CO)[C@H](O)[C@H](O)[C@H]4O)[C@H](O)[C@H]3O)nn2)cc(C(=O)O)c1)OCc1cn([C@@H]2O[C@H](CO)[C@H](O[C@H]3O[C@H](CO)[C@H](O)[C@H](O)[C@H]3O)[C@H](O)[C@H]2O)nn1 | 1240 µM |
| O=C(O)c1cc(OCCNC(=O)c2cc(OCc3cn([C@@H]4O[C@H](CO)[C@H](O[C@H]5O[C@H](CO)[C@H](O)[C@H](O)[C@H]5O)[C@H](O)[C@H]4O)nn3)cc(OCc3cn([C@@H]4O[C@H](CO)[C@H](O[C@H]5O[C@H](CO)[C@H](O)[C@H](O)[C@H]5O)[C@H](O)[C@H]4O)nn3)c2)cc(OCCNC(=O)c2cc(OCc3cn([C@@H]4O[C@H](CO)[C@H](O[C@H]5O[C@H](CO)[C@H](O)[C@H](O)[C@H]5O)[C@H](O)[C@H]4O)nn3)cc(OCc3cn([C@@H]4O[C@H](CO)[C@H](O[C@H]5O[C@H](CO)[C@H](O)[C@H](O)[C@H]5O)[C@H](O)[C@H]4O)nn3)c2)c1 | 19.9 µM |
